Reference: ChEMBL document CHEMBL6121016, “Design, Synthesis, and Biological Evaluation of 1,3,4-Thiadiazole Derivatives as Novel Potent Peptide Deformylase Inhibitors for Combating Drug-Resistant Gram-Positive and -Negative Bacteria” (J Med Chem, 2025)
In brackets after ≈: the same amount, converted by molar mass.

How the values were obtained:
Format in all cases: functional
Details in all cases: time 16-18 hrs
Klebsiella pneumoniae = test: Antibacterial activity against Klebsiella pneumoniae CICC 21611 after 16 to 18 hrs by broth microdilution method
Staphylococcus aureus [1] = test: Antibacterial activity against methicillin-resistant Staphylococcus aureus ATCC 43300 after 16 to 18 hrs by broth microdilution method
Escherichia coli = test: Antibacterial activity against Escherichia coli ATCC 25922 after 16 to 18 hrs by broth microdilution method
Staphylococcus aureus [2] = test: Antibacterial activity against methicillin-resistant Staphylococcus aureus ATCC 33591 after 16 to 18 hrs by broth microdilution method
Staphylococcus aureus [3] = test: Antibacterial activity against methicillin-susceptible Staphylococcus aureus ATCC 13709 after 16 to 18 hrs by broth microdilution method
Acinetobacter baumannii [4] = test: Antibacterial activity against drug-resistant Acinetobacter baumannii Bio 53272 after 16 to 18 hrs by broth microdilution method
Staphylococcus aureus [5] = test: Antibacterial activity against methicillin-susceptible Staphylococcus aureus ATCC 25923 after 16 to 18 hrs by broth microdilution method
Staphylococcus aureus [6] = test: Antibacterial activity against methicillin-susceptible Staphylococcus aureus ATCC 29213 after 16 to 18 hrs by broth microdilution method
Staphylococcus aureus [7] = test: Antibacterial activity against methicillin-resistant Staphylococcus aureus Bio-090770 after 16 to 18 hrs by broth microdilution method
Acinetobacter baumannii [8] = test: Antibacterial activity against Acinetobacter baumannii Bio 34235 after 16 to 18 hrs by broth microdilution method
[9] = test system: Staphylococcus epidermidis; test: Antibacterial activity against Staphylococcus epidermidis after 16 to 18 hrs by broth microdilution method

With `CCCC[C@H](CN(O)C=O)C(=O)N1CCC[C@H]1c1nnc(-c2ccc(-c3ccccc3)cc2)s1` the MIC (Klebsiella pneumoniae) was > 16 µg/mL, the MIC (Staphylococcus aureus [1]) was 1 µg/mL (≈ 2.09 µM) and the MIC (Escherichia coli) was > 16 µg/mL. The MIC (Staphylococcus aureus [2]) was 1 µg/mL (≈ 2.09 µM), the MIC (Staphylococcus aureus [3]) was 2 µg/mL (≈ 4.18 µM) and the MIC (Acinetobacter baumannii [4]) was > 16 µg/mL. For the same compound, the MIC (Staphylococcus aureus [5]) was 2 µg/mL (≈ 4.18 µM), the MIC (Staphylococcus aureus [6]) was 2 µg/mL (≈ 4.18 µM) and the MIC (Staphylococcus aureus [7]) was 2 µg/mL (≈ 4.18 µM). The MIC (Acinetobacter baumannii [8]) was > 16 µg/mL and the MIC [9] was > 16 µg/mL.
With `CCCC[C@H](CN(O)C=O)C(=O)N1CCC[C@H]1c1nnc(-c2ccc(OC)c(OC)c2)s1` the MIC (Klebsiella pneumoniae) was > 16 µg/mL, the MIC (Staphylococcus aureus [1]) was 0.25 µg/mL (≈ 0.54 µM) and the MIC (Escherichia coli) was > 16 µg/mL. For the same compound, the MIC (Staphylococcus aureus [2]) was 0.25 µg/mL (≈ 0.54 µM), the MIC (Staphylococcus aureus [3]) was 1 µg/mL (≈ 2.16 µM) and the MIC (Acinetobacter baumannii [4]) was 16 µg/mL (≈ 34.6 µM). It also gave an MIC (Staphylococcus aureus [5]) of 1 µg/mL (≈ 2.16 µM), an MIC (Staphylococcus aureus [6]) of 0.5 µg/mL (≈ 1.08 µM) and an MIC (Staphylococcus aureus [7]) of 1 µg/mL (≈ 2.16 µM). For the same compound, the MIC (Acinetobacter baumannii [8]) was > 16 µg/mL and the MIC [9] was 2 µg/mL (≈ 4.32 µM).
`CCCC[C@H](CN(O)C=O)C(=O)N1CCC[C@H]1c1nnc(-c2ccc(C(F)(F)F)cc2)s1` was tested, and the MIC (Klebsiella pneumoniae) was > 16 µg/mL, the MIC (Staphylococcus aureus [1]) was 2 µg/mL (≈ 4.25 µM) and the MIC (Escherichia coli) was > 16 µg/mL. For the same compound, the MIC (Staphylococcus aureus [2]) was 1 µg/mL (≈ 2.13 µM), the MIC (Staphylococcus aureus [3]) was 4 µg/mL (≈ 8.5 µM) and the MIC (Acinetobacter baumannii [4]) was 16 µg/mL (≈ 34 µM). The MIC (Staphylococcus aureus [5]) was 2 µg/mL (≈ 4.25 µM), the MIC (Staphylococcus aureus [6]) was 4 µg/mL (≈ 8.5 µM) and the MIC (Staphylococcus aureus [7]) was 2 µg/mL (≈ 4.25 µM). The MIC (Acinetobacter baumannii [8]) was > 16 µg/mL and the MIC [9] was 4 µg/mL (≈ 8.5 µM).
For `CCCC[C@H](CN(O)C=O)C(=O)N1CCC[C@H]1c1nnc(-c2ccc(OC)cc2)s1`, the MIC (Klebsiella pneumoniae) was > 16 µg/mL, the MIC (Staphylococcus aureus [1]) was 0.25 µg/mL (≈ 0.578 µM) and the MIC (Escherichia coli) was > 16 µg/mL. For the same compound, the MIC (Staphylococcus aureus [2]) was 0.25 µg/mL (≈ 0.578 µM), the MIC (Staphylococcus aureus [3]) was 0.5 µg/mL (≈ 1.16 µM) and the MIC (Acinetobacter baumannii [4]) was > 8 µg/mL. The MIC (Staphylococcus aureus [5]) was 0.5 µg/mL (≈ 1.16 µM), the MIC (Staphylococcus aureus [6]) was 0.5 µg/mL (≈ 1.16 µM) and the MIC (Staphylococcus aureus [7]) was 1 µg/mL (≈ 2.31 µM). It also gave an MIC (Acinetobacter baumannii [8]) of 16 µg/mL (≈ 37 µM) and an MIC [9] of 1 µg/mL (≈ 2.31 µM).
`CCCC[C@H](CN(O)C=O)C(=O)N1CCC[C@H]1c1nnc(-c2ccc(F)cc2[N+](=O)[O-])s1` was tested, and the MIC (Klebsiella pneumoniae) was > 16 µg/mL, the MIC (Staphylococcus aureus [1]) was 2 µg/mL (≈ 4.3 µM) and the MIC (Escherichia coli) was > 16 µg/mL. The MIC (Staphylococcus aureus [2]) was 1 µg/mL (≈ 2.15 µM), the MIC (Staphylococcus aureus [3]) was 2 µg/mL (≈ 4.3 µM) and the MIC (Acinetobacter baumannii [4]) was > 16 µg/mL. It also gave an MIC (Staphylococcus aureus [5]) of 4 µg/mL (≈ 8.59 µM), an MIC (Staphylococcus aureus [6]) of 2 µg/mL (≈ 4.3 µM) and an MIC (Staphylococcus aureus [7]) of 4 µg/mL (≈ 8.59 µM). For the same compound, the MIC (Acinetobacter baumannii [8]) was > 16 µg/mL and the MIC [9] was 4 µg/mL (≈ 8.59 µM).
With `CCCC[C@H](CN(O)C=O)C(=O)N1CCC[C@H]1c1nnc(-c2ccc(F)cc2)s1` the MIC (Klebsiella pneumoniae) was > 16 µg/mL, the MIC (Staphylococcus aureus [1]) was 1 µg/mL (≈ 2.38 µM) and the MIC (Escherichia coli) was 16 µg/mL (≈ 38 µM). It also gave an MIC (Staphylococcus aureus [2]) of 0.25 µg/mL (≈ 0.595 µM), an MIC (Staphylococcus aureus [3]) of 1 µg/mL (≈ 2.38 µM) and an MIC (Acinetobacter baumannii [4]) of 8 µg/mL (≈ 19 µM). The MIC (Staphylococcus aureus [5]) was 2 µg/mL (≈ 4.76 µM), the MIC (Staphylococcus aureus [6]) was 2 µg/mL (≈ 4.76 µM) and the MIC (Staphylococcus aureus [7]) was 2 µg/mL (≈ 4.76 µM). For the same compound, the MIC (Acinetobacter baumannii [8]) was > 16 µg/mL and the MIC [9] was 2 µg/mL (≈ 4.76 µM).
In the case of `CCCC[C@H](CN(O)C=O)C(=O)N1CCC[C@H]1c1nnc(-c2ccc([N+](=O)[O-])cc2)s1`, the MIC (Klebsiella pneumoniae) is reported as > 16 µg/mL, the MIC (Staphylococcus aureus [1]) is reported as 0.25 µg/mL (≈ 0.559 µM) and the MIC (Escherichia coli) is reported as > 16 µg/mL. The MIC (Staphylococcus aureus [2]) was 0.25 µg/mL (≈ 0.559 µM), the MIC (Staphylococcus aureus [3]) was 0.5 µg/mL (≈ 1.12 µM) and the MIC (Acinetobacter baumannii [4]) was 8 µg/mL (≈ 17.9 µM). The MIC (Staphylococcus aureus [5]) was 0.5 µg/mL (≈ 1.12 µM), the MIC (Staphylococcus aureus [6]) was 0.5 µg/mL (≈ 1.12 µM) and the MIC (Staphylococcus aureus [7]) was 1 µg/mL (≈ 2.23 µM). For the same compound, the MIC (Acinetobacter baumannii [8]) was > 16 µg/mL and the MIC [9] was 1 µg/mL (≈ 2.23 µM).
Compound `CCCC[C@H](CN(O)C=O)C(=O)N1CCC[C@H]1c1nnc(-c2ccco2)s1` has an MIC (Klebsiella pneumoniae) of 32 µg/mL (≈ 81.5 µM), an MIC (Staphylococcus aureus [1]) of 0.5 µg/mL (≈ 1.27 µM) and an MIC (Escherichia coli) of 64 µg/mL (≈ 163 µM). The MIC (Staphylococcus aureus [2]) was 0.5 µg/mL (≈ 1.27 µM), the MIC (Staphylococcus aureus [3]) was 1 µg/mL (≈ 2.55 µM) and the MIC (Acinetobacter baumannii [4]) was 16 µg/mL (≈ 40.8 µM). The MIC (Staphylococcus aureus [5]) was 4 µg/mL (≈ 10.2 µM), the MIC (Staphylococcus aureus [6]) was 2 µg/mL (≈ 5.1 µM) and the MIC (Staphylococcus aureus [7]) was 2 µg/mL (≈ 5.1 µM). It also gave an MIC (Acinetobacter baumannii [8]) of 16 µg/mL (≈ 40.8 µM) and an MIC [9] of 0.5 µg/mL (≈ 1.27 µM).
For `CCCC[C@H](CN(O)C=O)C(=O)N1CCC[C@H]1c1nnc(-c2ccc([N+](=O)[O-])cc2C(F)(F)F)s1`, the MIC (Klebsiella pneumoniae) was > 16 µg/mL, the MIC (Staphylococcus aureus [1]) was 0.5 µg/mL (≈ 0.97 µM) and the MIC (Escherichia coli) was > 16 µg/mL. For the same compound, the MIC (Staphylococcus aureus [2]) was 0.5 µg/mL (≈ 0.97 µM), the MIC (Staphylococcus aureus [3]) was 0.5 µg/mL (≈ 0.97 µM) and the MIC (Acinetobacter baumannii [4]) was > 16 µg/mL. For the same compound, the MIC (Staphylococcus aureus [5]) was 2 µg/mL (≈ 3.88 µM), the MIC (Staphylococcus aureus [6]) was 1 µg/mL (≈ 1.94 µM) and the MIC (Staphylococcus aureus [7]) was 1 µg/mL (≈ 1.94 µM). The MIC (Acinetobacter baumannii [8]) was > 16 µg/mL and the MIC [9] was 4 µg/mL (≈ 7.76 µM).
With `CCCC[C@H](CN(O)C=O)C(=O)N1CCC[C@H]1c1nnc(-c2cscn2)s1` the MIC (Klebsiella pneumoniae) was 32 µg/mL (≈ 78.1 µM), the MIC (Staphylococcus aureus [1]) was 0.5 µg/mL (≈ 1.22 µM) and the MIC (Escherichia coli) was 64 µg/mL (≈ 156 µM). It also gave an MIC (Staphylococcus aureus [2]) of 0.5 µg/mL (≈ 1.22 µM), an MIC (Staphylococcus aureus [3]) of 1 µg/mL (≈ 2.44 µM) and an MIC (Acinetobacter baumannii [4]) of 16 µg/mL (≈ 39.1 µM). For the same compound, the MIC (Staphylococcus aureus [5]) was 1 µg/mL (≈ 2.44 µM), the MIC (Staphylococcus aureus [6]) was 1 µg/mL (≈ 2.44 µM) and the MIC (Staphylococcus aureus [7]) was 2 µg/mL (≈ 4.88 µM). The MIC (Acinetobacter baumannii [8]) was 64 µg/mL (≈ 156 µM) and the MIC [9] was 0.25 µg/mL (≈ 0.61 µM).
